Experimental data taken from PubChem BioAssay (NCI).
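Growth conditions: 96-well plates. Treatment: test compound, 48 hours, 5 concentrations. Analysis: linear interpolation between bracketing concentrations; unreached endpoints set to highest concentration. The concentration for full growth arrest is given as TGI.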

Tests used:
Assay in all cases: inhibition of tumour cell growth, NCI panel, 48 h
SNB-19 CNS = test system: SNB-19 CNS
RPMI-8226 leukemia = test system: RPMI-8226 leukemia
U251 CNS = test system: U251 CNS
OVCAR-8 ovarian = test system: OVCAR-8 ovarian
NCI-H460 lung = test system: NCI-H460 lung
XF 498 CNS = test system: XF 498 CNS
HOP-62 NSCLC = test system: HOP-62 NSCLC
K-562 leukemia = test system: K-562 leukemia
M14 melanoma = test system: M14 melanoma
SW-620 colon = test system: SW-620 colon
HOP-92 NSCLC = test system: HOP-92 NSCLC
HCT-15 colon = test system: HCT-15 colon
UACC-62 melanoma = test system: UACC-62 melanoma
DMS 273 small cell lung = test system: DMS 273 small cell lung
KM12 colon = test system: KM12 colon
CCRF-CEM leukemia = test system: CCRF-CEM leukemia
SK-MEL-5 melanoma = test system: SK-MEL-5 melanoma
UO-31 renal = test system: UO-31 renal
MALME-3M melanoma = test system: MALME-3M melanoma
RXF-631 renal = test system: RXF-631 renal
OVCAR-3 ovarian = test system: OVCAR-3 ovarian
COLO 205 colon = test system: COLO 205 colon
UACC-257 melanoma = test system: UACC-257 melanoma
SF-539 CNS = test system: SF-539 CNS
HT29 colon = test system: HT29 colon
HL-60(TB) leukemia = test system: HL-60(TB) leukemia
OVCAR-5 ovarian = test system: OVCAR-5 ovarian
SK-MEL-2 melanoma = test system: SK-MEL-2 melanoma
KM20L2 colon = test system: KM20L2 colon
MOLT-4 leukemia = test system: MOLT-4 leukemia
SNB-78 CNS = test system: SNB-78 CNS
LOX IMVI melanoma = test system: LOX IMVI melanoma
NCI-H522 lung = test system: NCI-H522 lung
CAKI-1 renal = test system: CAKI-1 renal
786-0 renal = test system: 786-0 renal
SF-268 CNS = test system: SF-268 CNS
SR leukemia = test system: SR leukemia
OVCAR-4 ovarian = test system: OVCAR-4 ovarian
SNB-75 CNS = test system: SNB-75 CNS
M19-MEL melanoma = test system: M19-MEL melanoma
TK-10 renal = test system: TK-10 renal
HCC-2998 colon = test system: HCC-2998 colon
DMS 114 small cell lung = test system: DMS 114 small cell lung
SF-295 CNS = test system: SF-295 CNS
DLD-1 colon = test system: DLD-1 colon
IGROV1 ovarian = test system: IGROV1 ovarian
LXFL 529 NSCLC = test system: LXFL 529 NSCLC
HCT-116 colon = test system: HCT-116 colon
A549 NSCLC = test system: A549 NSCLC
SK-MEL-28 melanoma = test system: SK-MEL-28 melanoma
HOP-18 NSCLC = test system: HOP-18 NSCLC
ACHN renal = test system: ACHN renal
EKVX NSCLC = test system: EKVX NSCLC
SK-OV-3 ovarian = test system: SK-OV-3 ovarian
NCI-H226 lung = test system: NCI-H226 lung
NCI-H23 lung = test system: NCI-H23 lung
SN12C renal = test system: SN12C renal

## CCOC(=O)C1C(NC(N)=O)N(Cc2ccccc2)C(=O)N1Cc1ccccc1 (configuration not stated)
SNB-19 CNS
  TGI: > 100 µM
RPMI-8226 leukemia
  TGI: > 100 µM
U251 CNS
  TGI: 32 µM
OVCAR-8 ovarian
  TGI: > 100 µM
NCI-H460 lung
  TGI: > 100 µM
XF 498 CNS
  TGI: > 100 µM
HOP-62 NSCLC
  TGI: > 100 µM
K-562 leukemia
  TGI: > 100 µM
M14 melanoma
  TGI: > 100 µM
SW-620 colon
  TGI: > 100 µM
HOP-92 NSCLC
  TGI: > 100 µM
HCT-15 colon
  TGI: > 100 µM
UACC-62 melanoma
  TGI: > 100 µM
DMS 273 small cell lung
  TGI: > 100 µM
KM12 colon
  TGI: > 100 µM
CCRF-CEM leukemia
  TGI: > 100 µM
SK-MEL-5 melanoma
  TGI: > 100 µM
UO-31 renal
  TGI: > 100 µM
MALME-3M melanoma
  TGI: > 100 µM
RXF-631 renal
  TGI: > 100 µM
OVCAR-3 ovarian
  TGI: > 100 µM
COLO 205 colon
  TGI: > 100 µM
UACC-257 melanoma
  TGI: > 100 µM
SF-539 CNS
  TGI: > 100 µM
HT29 colon
  TGI: > 100 µM
HL-60(TB) leukemia
  TGI: > 100 µM
OVCAR-5 ovarian
  TGI: > 100 µM
SK-MEL-2 melanoma
  TGI: > 100 µM
KM20L2 colon
  TGI: > 100 µM
MOLT-4 leukemia
  TGI: > 100 µM
SNB-78 CNS
  TGI: 29.2 µM
LOX IMVI melanoma
  TGI: > 100 µM
NCI-H522 lung
  TGI: > 100 µM
CAKI-1 renal
  TGI: > 100 µM
786-0 renal
  TGI: > 100 µM
SF-268 CNS
  TGI: > 100 µM
SR leukemia
  TGI: > 100 µM
OVCAR-4 ovarian
  TGI: > 100 µM
SNB-75 CNS
  TGI: > 100 µM
M19-MEL melanoma
  TGI: > 100 µM
TK-10 renal
  TGI: > 100 µM
HCC-2998 colon
  TGI: > 100 µM
DMS 114 small cell lung
  TGI: > 100 µM
SF-295 CNS
  TGI: > 100 µM
DLD-1 colon
  TGI: > 100 µM
IGROV1 ovarian
  TGI: > 100 µM
LXFL 529 NSCLC
  TGI: > 100 µM
HCT-116 colon
  TGI: > 100 µM
A549 NSCLC
  TGI: > 100 µM
SK-MEL-28 melanoma
  TGI: > 100 µM
HOP-18 NSCLC
  TGI: > 100 µM
ACHN renal
  TGI: > 100 µM
EKVX NSCLC
  TGI: > 100 µM
SK-OV-3 ovarian
  TGI: > 100 µM

## COc1ccc2cc3n(c(=O)c2c1)CCc1c-3cc(OC)c(OC)c1OC
SNB-19 CNS
  TGI: > 100 µM
RPMI-8226 leukemia
  TGI: > 100 µM
U251 CNS
  TGI: > 100 µM
OVCAR-8 ovarian
  TGI: > 100 µM
XF 498 CNS
  TGI: > 100 µM
HOP-62 NSCLC
  TGI: > 100 µM
K-562 leukemia
  TGI: > 100 µM
M14 melanoma
  TGI: > 100 µM
SW-620 colon
  TGI: > 100 µM
HOP-92 NSCLC
  TGI: > 100 µM
HCT-15 colon
  TGI: > 100 µM
UACC-62 melanoma
  TGI: > 100 µM
DMS 273 small cell lung
  TGI: > 100 µM
CCRF-CEM leukemia
  TGI: > 100 µM
SK-MEL-5 melanoma
  TGI: > 100 µM
NCI-H226 lung
  TGI: > 100 µM
UO-31 renal
  TGI: > 100 µM
MALME-3M melanoma
  TGI: > 100 µM
NCI-H23 lung
  TGI: > 100 µM
OVCAR-3 ovarian
  TGI: > 100 µM
COLO 205 colon
  TGI: > 100 µM
UACC-257 melanoma
  TGI: > 100 µM
SF-539 CNS
  TGI: > 100 µM
HT29 colon
  TGI: > 100 µM
HL-60(TB) leukemia
  TGI: > 100 µM
OVCAR-5 ovarian
  TGI: > 100 µM
SK-MEL-2 melanoma
  TGI: > 100 µM
KM20L2 colon
  TGI: > 100 µM
MOLT-4 leukemia
  TGI: > 100 µM
SNB-78 CNS
  TGI: > 100 µM
SN12C renal
  TGI: > 100 µM
NCI-H522 lung
  TGI: > 100 µM
CAKI-1 renal
  TGI: > 100 µM
786-0 renal
  TGI: > 100 µM
SF-268 CNS
  TGI: > 100 µM
SR leukemia
  TGI: > 100 µM
OVCAR-4 ovarian
  TGI: > 100 µM
SNB-75 CNS
  TGI: 98.6 µM
M19-MEL melanoma
  TGI: > 100 µM
TK-10 renal
  TGI: > 100 µM
HCC-2998 colon
  TGI: > 100 µM
DMS 114 small cell lung
  TGI: > 100 µM
SF-295 CNS
  TGI: > 100 µM
DLD-1 colon
  TGI: > 100 µM
IGROV1 ovarian
  TGI: > 100 µM
LXFL 529 NSCLC
  TGI: > 100 µM
HCT-116 colon
  TGI: > 100 µM
A549 NSCLC
  TGI: > 100 µM
SK-MEL-28 melanoma
  TGI: > 100 µM
HOP-18 NSCLC
  TGI: > 100 µM
ACHN renal
  TGI: > 100 µM
EKVX NSCLC
  TGI: > 100 µM
SK-OV-3 ovarian
  TGI: > 100 µM
